Measured values from patent US20230203098A1, “HUMAN TRANSFERRIN RECEPTOR BINDING PEPTIDE” (priority 2020, published 2023).
Where two headings read alike, the source gives them in different places. Where a SMILES comes first, the peptide text is derived from it. Bridges are numbered along the chain shown (N, C = ends). [ ]: non-standard residue; d: D form. NMePhe(3-Cl) = CN[C@@H](Cc1cccc(Cl)c1)C(=O)O; NMeW = CN[C@@H](Cc1c[nH]c2ccccc12)C(=O)O; Lys(N3) = [N-]=[N+]=NCCCC[C@H](N)C(=O)O; NMeY = CN[C@@H](Cc1ccc(O)cc1)C(=O)O; PEG4 = NCCOCCOCCOCCOCCC(=O)O; Abu = CC[C@H](N)C(=O)O

Target: transferrin receptor (hTfR) (Homo sapiens, UniProt P02786)
Sequence (P02786 whole entry): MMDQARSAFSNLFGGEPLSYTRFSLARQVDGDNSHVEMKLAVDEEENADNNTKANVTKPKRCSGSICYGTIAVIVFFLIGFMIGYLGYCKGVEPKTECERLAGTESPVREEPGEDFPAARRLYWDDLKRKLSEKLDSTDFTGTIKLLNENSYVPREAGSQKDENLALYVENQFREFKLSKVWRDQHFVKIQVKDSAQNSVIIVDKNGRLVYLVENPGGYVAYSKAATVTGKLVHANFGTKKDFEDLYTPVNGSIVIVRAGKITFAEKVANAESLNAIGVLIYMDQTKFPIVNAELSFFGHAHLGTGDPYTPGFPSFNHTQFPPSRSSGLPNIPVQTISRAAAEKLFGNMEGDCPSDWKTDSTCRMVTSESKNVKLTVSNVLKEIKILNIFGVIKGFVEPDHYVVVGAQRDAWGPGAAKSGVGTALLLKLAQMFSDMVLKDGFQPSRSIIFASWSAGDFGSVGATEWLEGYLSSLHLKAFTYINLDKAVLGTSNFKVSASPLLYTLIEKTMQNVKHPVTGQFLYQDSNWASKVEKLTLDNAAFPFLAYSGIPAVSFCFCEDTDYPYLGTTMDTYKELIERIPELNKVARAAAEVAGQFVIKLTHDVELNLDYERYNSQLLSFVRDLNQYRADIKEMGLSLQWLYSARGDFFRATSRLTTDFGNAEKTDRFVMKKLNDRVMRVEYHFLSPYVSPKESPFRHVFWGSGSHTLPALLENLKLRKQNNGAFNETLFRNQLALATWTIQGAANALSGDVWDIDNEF
Assay: Intermolecular interaction evaluation test between transferrin receptor (hTfR) and peptide by surface plasmon resonance (SPR)
Format: binding
Summary of the method: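 hTfR captured on Ni-NTA chip then amine-coupled; peptides run single-cycle kinetics at 5–100 nM in 10 mM HEPES pH 8.0, 150 mM NaCl, 0.05% Tween 20, 0.1% BSA, 1.0% DMSO. KD from least-squares curve fitting of sensorgrams.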

[1] = SPR, peptides, linker-added peptides and FITC conjugates, Patent ID 203-230, read-out: KD
[2] = binding to hTfR by SPR, Table 2 peptides, read-out: KD value (SPR) class

Row | SMILES | Kd [2] | other results
1 | CC[C@H](C)[C@@H]1NC(=O)[C@H](Cc2ccc(OC)cc2)NC(=O)[C@H](Cc2ccc(O)cc2)NC(=O)[C@H](CC(N)=O)NC(=O)[C@H](Cc2c[nH]c3ccccc23)N(C)C(=O)[C@H](C(C)C)NC(=O)[C@H](Cc2cccc(Cl)c2)N(C)C(=O)[C@H](CCC(=O)O)NC(=O)[C@H](C)NC(=O)CSC[C@@H](C(=O)NCC(=O)NCC(=O)NCC(=O)NCC(=O)N[C@@H](CO)C(=O)N[C@@H](CO)C(=O)N[C@@H](CS)C(N)=O)NC(=O)[C@H](Cc2ccc(O)cc2)N(C)C(=O)[C@H](Cc2ccccc2)NC(=O)[C@@H](CCCNC(=N)N)NC(=O)[C@H](CCCCN)NC(=O)[C@H]([C@@H](C)CC)NC1=O [compound 229] | – | Kd [1]: 1 to 100 nM
2 | CC[C@H](C)[C@@H]1NC(=O)[C@H](Cc2ccc(OC)cc2)NC(=O)[C@H](Cc2ccc(O)cc2)NC(=O)[C@H](CC(N)=O)NC(=O)[C@H](Cc2c[nH]c3ccccc23)N(C)C(=O)[C@H](C(C)C)NC(=O)[C@H](Cc2cccc(Cl)c2)N(C)C(=O)[C@H](CCC(=O)O)NC(=O)[C@H](C)NC(=O)CSC[C@@H](C(=O)N[C@H](CCC(=O)O)C(=O)NCC(=O)NCC(=O)NCC(=O)N[C@@H](CO)C(=O)N[C@@H](CO)C(=O)N[C@@H](CS)C(N)=O)NC(=O)[C@H](Cc2ccc(O)cc2)N(C)C(=O)[C@H](Cc2ccccc2)NC(=O)[C@@H](CCCNC(=N)N)NC(=O)[C@H](CCCCN)NC(=O)[C@H]([C@@H](C)CC)NC1=O [compound 230] ({CH2CO}-AE[NMePhe(3-Cl)]V[NMeW]NYY(Me)IIK[dR]F[NMeY]C[dE]GGGSSC-NH2; thioether N-15) | – | Kd [1]: 1 to 100 nM
3 | CC[C@H](C)[C@@H]1NC(=O)[C@H](Cc2ccc(OC)cc2)NC(=O)[C@H](Cc2ccc(O)cc2)NC(=O)[C@H](CC(N)=O)NC(=O)[C@H](Cc2c[nH]c3ccccc23)N(C)C(=O)[C@H](C(C)C)NC(=O)[C@H](Cc2cccc(Cl)c2)N(C)C(=O)[C@H](CCC(=O)O)NC(=O)[C@H](C)NC(=O)CSC[C@@H](C(=O)NCC(=O)NCC(=O)NCC(=O)NCC(=O)N[C@@H](CO)C(=O)N[C@@H](CO)C(=O)N[C@@H](CS)C(N)=O)NC(=O)[C@H](Cc2ccc(O)cc2)N(C)C(=O)[C@H](Cc2ccccc2)NC(=O)[C@H](CCC(=O)O)NC(=O)[C@H](CCCNC(=N)N)NC(=O)[C@H]([C@@H](C)CC)NC1=O [compound 231] | 1 to 100 nM | –
4 | CC[C@H](C)[C@@H]1NC(=O)[C@H](Cc2ccc(OC)cc2)NC(=O)[C@H](Cc2ccc(O)cc2)NC(=O)[C@H](CC(N)=O)NC(=O)[C@H](Cc2c[nH]c3ccccc23)N(C)C(=O)[C@H](C(C)C)NC(=O)[C@H](Cc2cccc(Cl)c2)N(C)C(=O)[C@H](CCC(=O)O)NC(=O)[C@H](C)NC(=O)CSC[C@@H](C(=O)NCC(=O)N[C@@H](CCCCN=[N+]=[N-])C(N)=O)NC(=O)[C@H](Cc2ccc(O)cc2)N(C)C(=O)[C@H](Cc2ccccc2)NC(=O)[C@H](CCC(=O)O)NC(=O)[C@H](CCCNC(=N)N)NC(=O)[C@H]([C@@H](C)CC)NC1=O [compound 232] ({CH2CO}-AE[NMePhe(3-Cl)]V[NMeW]NYY(Me)IIREF[NMeY]CG[Lys(N3)]-NH2; thioether N-15) | 1 to 100 nM | –
5 | CC[C@H](C)[C@@H]1NC(=O)[C@H](Cc2ccc(OC)cc2)NC(=O)[C@H](Cc2ccc(O)cc2)NC(=O)[C@H](CC(N)=O)NC(=O)[C@H](Cc2c[nH]c3ccccc23)N(C)C(=O)[C@H](C(C)C)NC(=O)[C@H](Cc2cccc(Cl)c2)N(C)C(=O)[C@H](CCC(=O)O)NC(=O)[C@H](C)NC(=O)CSC[C@@H](C(N)=O)NC(=O)[C@H](Cc2ccc(O)cc2)N(C)C(=O)[C@H](Cc2ccccc2)NC(=O)[C@H](CCCNC(=N)N)NC(=O)[C@H](CCCNC(=N)N)NC(=O)[C@H]([C@@H](C)CC)NC1=O [compound 233] | < 1 nM | –
6 | CC[C@H](C)[C@@H]1NC(=O)[C@H](Cc2ccc(OC)cc2)NC(=O)[C@H](Cc2ccc(O)cc2)NC(=O)[C@H](CC(N)=O)NC(=O)[C@H](Cc2c[nH]c3ccccc23)N(C)C(=O)[C@H](C(C)C)NC(=O)[C@H](Cc2cccc(Cl)c2)N(C)C(=O)[C@H](CCC(=O)O)NC(=O)[C@H](C)NC(=O)CSC[C@@H](C(=O)NCC(=O)NCC(=O)NCC(=O)NCC(=O)N[C@@H](CO)C(=O)N[C@@H](CO)C(=O)N[C@@H](CS)C(N)=O)NC(=O)[C@H](Cc2ccc(O)cc2)N(C)C(=O)[C@H](Cc2ccccc2)NC(=O)[C@@H](CCCNC(=N)N)NC(=O)[C@H](CCCNC(=N)N)NC(=O)[C@H]([C@@H](C)CC)NC1=O [compound 234] | – | Kd: 1 to 100 nM
7 | CC[C@H](C)[C@@H]1NC(=O)[C@H](Cc2ccc(OC)cc2)NC(=O)[C@H](Cc2ccc(O)cc2)NC(=O)[C@H](CC(N)=O)NC(=O)[C@H](Cc2c[nH]c3ccccc23)N(C)C(=O)[C@H](C(C)C)NC(=O)[C@H](Cc2cccc(Cl)c2)N(C)C(=O)[C@H](CCC(=O)O)NC(=O)[C@H](C)NC(=O)CSC[C@@H](C(=O)N[C@H](CCC(=O)O)C(=O)NCC(=O)NCC(=O)NCC(=O)N[C@@H](CO)C(=O)N[C@@H](CO)C(=O)N[C@@H](CS)C(N)=O)NC(=O)[C@H](Cc2ccc(O)cc2)N(C)C(=O)[C@H](Cc2ccccc2)NC(=O)[C@@H](CCCNC(=N)N)NC(=O)[C@H](CCCNC(=N)N)NC(=O)[C@H]([C@@H](C)CC)NC1=O [compound 235] | 100 to 1000 nM | –
8 | CC[C@H](C)[C@@H]1NC(=O)[C@H](Cc2ccc(OC)cc2)NC(=O)[C@H](Cc2ccc(O)cc2)NC(=O)[C@H](CC(N)=O)NC(=O)[C@H](Cc2c[nH]c3ccccc23)N(C)C(=O)[C@H](C(C)C)NC(=O)[C@H](Cc2cccc(Cl)c2)N(C)C(=O)[C@H](CC(=O)O)NC(=O)[C@H](C)NC(=O)CSC[C@@H](C(=O)NCC(=O)NCC(=O)NCC(=O)NCC(=O)N[C@@H](CO)C(=O)N[C@@H](CO)C(=O)N[C@@H](CS)C(N)=O)NC(=O)[C@H](Cc2ccc(O)cc2)N(C)C(=O)[C@H](Cc2ccccc2)NC(=O)[C@@H](CCCNC(=N)N)NC(=O)[C@H](CCCNC(=N)N)NC(=O)[C@H]([C@@H](C)CC)NC1=O [compound 236] ({CH2CO}-AD[NMePhe(3-Cl)]V[NMeW]NYY(Me)IIR[dR]F[NMeY]CGGGGSSC-NH2; thioether N-15) | – | Kd: 100 to 1000 nM
9 | CC[C@H](C)[C@@H]1NC(=O)[C@H](Cc2ccc(O)cc2)NC(=O)[C@H](Cc2ccc(O)cc2)NC(=O)[C@H](CC(N)=O)NC(=O)[C@H](Cc2c[nH]c3ccccc23)NC(=O)[C@H](C(C)C)NC(=O)[C@H](Cc2ccccc2)NC(=O)[C@H](CCCNC(=N)N)NC(=O)[C@H](C)NC(=O)CSC[C@@H](C(N)=O)NC(=O)[C@H](Cc2ccc(O)cc2)N(C)C(=O)[C@H](Cc2ccc(O)cc2)NC(=O)[C@H](CCCNC(=N)N)NC(=O)[C@H](CCCNC(=N)N)NC(=O)[C@H]([C@@H](C)CC)NC1=O [compound 237] | 1 to 100 nM | –
10 | CC[C@H](C)[C@@H]1NC(=O)[C@H](Cc2ccc(O)cc2)NC(=O)[C@H](Cc2ccc(O)cc2)NC(=O)[C@H](CC(N)=O)NC(=O)[C@H](Cc2c[nH]c3ccccc23)NC(=O)[C@H](C(C)C)NC(=O)[C@H](Cc2ccccc2)NC(=O)[C@H](CCCCN)NC(=O)[C@H](C)NC(=O)CSC[C@@H](C(N)=O)NC(=O)[C@H](Cc2ccc(O)cc2)N(C)C(=O)[C@H](Cc2ccc(O)cc2)NC(=O)[C@H](CCCNC(=N)N)NC(=O)[C@H](CCCNC(=N)N)NC(=O)[C@H]([C@@H](C)CC)NC1=O [compound 238] | 1 to 100 nM | –
11 | CC[C@H](C)[C@@H]1NC(=O)[C@H](Cc2ccc(OC)cc2)NC(=O)[C@H](Cc2ccc(O)cc2)NC(=O)[C@H](CC(N)=O)NC(=O)[C@H](Cc2c[nH]c3ccccc23)N(C)C(=O)[C@H](C(C)C)NC(=O)[C@H](Cc2cccc(Cl)c2)N(C)C(=O)[C@H](CN)NC(=O)[C@H](C)NC(=O)CSC[C@@H](C(=O)NCC(=O)NCC(=O)NCC(=O)NCC(=O)N[C@@H](CO)C(=O)N[C@@H](CO)C(=O)N[C@@H](CS)C(N)=O)NC(=O)[C@H](Cc2ccc(O)cc2)N(C)C(=O)[C@H](Cc2ccccc2)NC(=O)[C@@H](CCCNC(=N)N)NC(=O)[C@H](CCCNC(=N)N)NC(=O)[C@H]([C@@H](C)CC)NC1=O [compound 239] | – | Kd: 1 to 100 nM
12 | CC[C@H](C)[C@@H]1NC(=O)[C@H](Cc2ccc(OC)cc2)NC(=O)[C@H](Cc2ccc(O)cc2)NC(=O)[C@H](CC(N)=O)NC(=O)[C@H](Cc2c[nH]c3ccccc23)N(C)C(=O)[C@H](C(C)C)NC(=O)[C@H](Cc2cccc(Cl)c2)N(C)C(=O)[C@H](CCC(=O)N[C@H](CCC(=O)O)C(=O)O)NC(=O)[C@H](C)NC(=O)CSC[C@@H](C(N)=O)NC(=O)[C@H](Cc2ccc(O)cc2)N(C)C(=O)[C@H](Cc2ccccc2)NC(=O)[C@@H](CCCNC(=N)N)NC(=O)[C@H](CCCNC(=N)N)NC(=O)[C@H]([C@@H](C)CC)NC1=O [compound 241] | 1 to 100 nM | –
13 | CC[C@H](C)[C@@H]1NC(=O)[C@H](Cc2ccc(OC)cc2)NC(=O)[C@H](Cc2ccc(O)cc2)NC(=O)[C@H](CC(N)=O)NC(=O)[C@H](Cc2c[nH]c3ccccc23)N(C)C(=O)[C@H](C(C)C)NC(=O)[C@H](Cc2cccc(Cl)c2)N(C)C(=O)[C@H](CCCCNC(=N)N)NC(=O)[C@H](C)NC(=O)CSC[C@@H](C(N)=O)NC(=O)[C@H](Cc2ccc(O)cc2)N(C)C(=O)[C@H](Cc2ccccc2)NC(=O)[C@@H](CCCNC(=N)N)NC(=O)[C@H](CCCNC(=N)N)NC(=O)[C@H]([C@@H](C)CC)NC1=O [compound 242] | 1 to 100 nM | –
14 | CC[C@@H]1NC(=O)[C@H](C)NC(=O)CSC[C@@H](C(=O)NCCOCCOCCOCCOCCC(N)=O)NC(=O)[C@H](Cc2ccc(O)cc2)N(C)C(=O)[C@H](Cc2ccccc2)NC(=O)[C@@H](CCCNC(=N)N)NC(=O)[C@H](CCCNC(=N)N)NC(=O)[C@H]([C@@H](C)CC)NC(=O)[C@H]([C@@H](C)CC)NC(=O)[C@H](Cc2ccc(OC)cc2)NC(=O)[C@H](Cc2ccc(O)cc2)NC(=O)[C@H](CC(N)=O)NC(=O)[C@H](Cc2c[nH]c3ccccc23)N(C)C(=O)[C@H](C(C)C)NC(=O)[C@H](Cc2cccc(Cl)c2)N(C)C1=O [compound 243] ({CH2CO}-A[Abu][NMePhe(3-Cl)]V[NMeW]NYY(Me)IIR[dR]F[NMeY]C[PEG4]-NH2; thioether N-15) | 1 to 100 nM | –
